The source of these data is paper PMC10744336, “Functional Identification of Olfactory Receptors of Cnaphalocrocis medinalis (Lepidoptera: Crambidae) for Plant Odor” (Insects, 2023).

Common to all, as to assay: two-electrode voltage clamp, Xenopus oocytes
Format in all cases: cell-based
Background: Two-electrode voltage clamp holds a large cell at a set potential and records current.

The target in one assay is T1, CmedOR32/ORco (Cnaphalocrocis medinalis, UniProt A0A1B2G2M9).
T1 construct: full ORF cloned in pT7Ts; cRNA co-injected with CmedORco in Xenopus oocytes; with Odorant receptor coreceptor
T1 sequence (A0A1B2G2M9 1-389): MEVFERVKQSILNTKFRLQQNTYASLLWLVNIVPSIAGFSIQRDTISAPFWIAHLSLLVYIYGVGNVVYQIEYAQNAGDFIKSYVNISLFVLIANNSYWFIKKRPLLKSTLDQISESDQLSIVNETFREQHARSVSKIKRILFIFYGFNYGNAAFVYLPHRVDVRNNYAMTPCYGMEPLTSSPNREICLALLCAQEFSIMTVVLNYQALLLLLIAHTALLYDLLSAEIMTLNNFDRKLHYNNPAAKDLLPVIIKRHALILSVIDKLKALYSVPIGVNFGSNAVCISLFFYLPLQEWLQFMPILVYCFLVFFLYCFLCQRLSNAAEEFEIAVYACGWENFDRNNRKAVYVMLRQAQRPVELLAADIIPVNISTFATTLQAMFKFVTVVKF
T1 sequence (H9XFD5 1-473 partner): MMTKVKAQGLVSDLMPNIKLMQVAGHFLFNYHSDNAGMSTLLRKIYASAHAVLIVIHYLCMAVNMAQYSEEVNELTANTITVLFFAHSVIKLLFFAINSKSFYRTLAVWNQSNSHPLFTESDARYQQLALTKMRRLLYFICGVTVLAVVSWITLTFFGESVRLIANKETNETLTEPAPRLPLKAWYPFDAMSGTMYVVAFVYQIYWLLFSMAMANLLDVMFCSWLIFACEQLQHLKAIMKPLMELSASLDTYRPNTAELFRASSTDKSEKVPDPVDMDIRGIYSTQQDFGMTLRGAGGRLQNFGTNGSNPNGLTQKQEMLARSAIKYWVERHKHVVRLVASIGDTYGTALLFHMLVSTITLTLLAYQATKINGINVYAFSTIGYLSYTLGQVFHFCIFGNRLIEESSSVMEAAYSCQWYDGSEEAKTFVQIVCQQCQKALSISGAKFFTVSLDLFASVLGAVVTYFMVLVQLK
As to conditions: agonist; with CmedORco; -80 mV; pH 7.5; 15 s stimulus; concentration contradictory (text 0.1 μM, figure legend 10^-4 M).

In a further assay the target is T2, CmedOR31/ORco (Cnaphalocrocis medinalis, UniProt A0A1B2G2M5).
T2 construct: full ORF cloned in pT7Ts; cRNA co-injected with CmedORco in Xenopus oocytes; with Odorant receptor coreceptor
T2 sequence (A0A1B2G2M5 1-408): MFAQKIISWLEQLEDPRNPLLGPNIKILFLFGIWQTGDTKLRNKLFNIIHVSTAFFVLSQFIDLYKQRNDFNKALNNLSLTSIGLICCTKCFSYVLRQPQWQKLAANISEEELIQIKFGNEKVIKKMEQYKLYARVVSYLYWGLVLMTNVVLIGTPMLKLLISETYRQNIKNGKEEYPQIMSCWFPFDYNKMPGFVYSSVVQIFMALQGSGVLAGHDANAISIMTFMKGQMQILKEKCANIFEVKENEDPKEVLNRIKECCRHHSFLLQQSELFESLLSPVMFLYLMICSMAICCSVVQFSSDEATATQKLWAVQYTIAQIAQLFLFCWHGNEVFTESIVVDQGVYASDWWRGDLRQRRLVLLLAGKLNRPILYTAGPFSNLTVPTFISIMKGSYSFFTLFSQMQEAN
T2 sequence (H9XFD5 1-473 partner): T1 sequence (H9XFD5 1-473 partner)
The conditions noted are these: agonist; with CmedORco; -80 mV; pH 7.5; 15 s stimulus; concentration contradictory (text 0.1 μM, figure legend 10^-4 M).

The target of assay [1] is T3, CmedOR1/ORco (Cnaphalocrocis medinalis, UniProt A0A0U3A934).
T3 construct: gene or1; full ORF cloned in pT7Ts; cRNA co-injected with CmedORco in Xenopus oocytes; with Odorant receptor coreceptor
T3 sequence (A0A0U3A934 1-448): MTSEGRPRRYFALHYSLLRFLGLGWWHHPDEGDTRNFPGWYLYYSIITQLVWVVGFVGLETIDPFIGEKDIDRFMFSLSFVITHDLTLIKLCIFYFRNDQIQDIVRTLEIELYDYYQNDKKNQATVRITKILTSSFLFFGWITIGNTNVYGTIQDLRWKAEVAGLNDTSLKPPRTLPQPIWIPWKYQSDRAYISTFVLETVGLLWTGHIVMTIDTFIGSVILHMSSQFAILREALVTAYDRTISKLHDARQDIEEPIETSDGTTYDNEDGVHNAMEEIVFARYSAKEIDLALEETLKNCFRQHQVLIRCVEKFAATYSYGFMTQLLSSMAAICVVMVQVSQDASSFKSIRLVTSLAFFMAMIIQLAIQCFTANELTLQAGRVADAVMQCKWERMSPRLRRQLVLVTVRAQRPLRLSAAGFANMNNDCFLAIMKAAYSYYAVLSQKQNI
T3 sequence (H9XFD5 1-473 partner): T1 sequence (H9XFD5 1-473 partner)
As to conditions: agonist, with CmedORco, -80 mV, pH 7.5, 15 s stimulus, concentration contradictory (text 0.1 μM, figure legend 10^-4 M).

Assay [2] concerns the target T3, CmedOR1/ORco. The conditions noted are these: agonist; with CmedORco; -80 mV; pH 7.5; 15 s stimulus; 10^-4 M (b31 also prints 0.1 μM).

As for `CCC/C=C/C=O` [E2-hexenal], the inward current result on CmedOR32/ORco was “plant foliar odorants cis-3-hexenyl acetate, E2-hexenal, and β-caryophyllene”. With `CCCC(=O)OCC` [Ethyl butyrate], on CmedOR32/ORco, the inward current result is “floral volatile compounds methyl 2-methoxybenzoate, β-myrcene, and ethyl butyrate”.

At CmedOR31/ORco, `CC(C)=CCC/C(C)=C/CO` [Geraniol] registered an inward current of 128 ± 16 nA. `C=CC(C)(O)CCC=C(C)C` (stereo not shown) [Linalool] displayed an inward current at CmedOR1/ORco [1] of 64 ± 5 nA. Regarding `COC(=O)c1ccccc1OC` [Methyl 2-methoxybenzoate], the inward current result on CmedOR32/ORco is “floral volatile compounds methyl 2-methoxybenzoate, β-myrcene, and ethyl butyrate”. As for `OCCc1ccccc1` [Phenethyl alcohol], the inward current on CmedOR1/ORco [1] (printed as two isomers, phenethyl alcohol and 2-phenethyl alcohol) was determined as 130 ± 10 nA. As to `O=CCc1ccccc1` [Phenylacetaldehyde], the “inward current at 10^-4 M” value on CmedOR1/ORco [2] was found to be 3200 ± 86 nA. For `CC/C=C\CCOC(C)=O` [cis-3-Hexenyl acetate], at CmedOR32/ORco, the inward current result is given as “CmedOR32 showed nonspecific responses to plant foliar odorants cis-3-hexenyl acetate”.

`C=C1CC/C=C(\C)CC[C@@H]2[C@@H]1CC2(C)C` [β-Caryophyllene]: the inward current result at CmedOR32/ORco was “plant foliar odorants cis-3-hexenyl acetate, E2-hexenal, and β-caryophyllene”. Regarding `C=CC(=C)CCC=C(C)C` [β-Myrcene], on CmedOR32/ORco, the inward current entry was “floral volatile compounds methyl 2-methoxybenzoate, β-myrcene, and ethyl butyrate”.
